Experimental data: patent US20250123273A1, “SYSTEM TO CALCULATE HUMAN ORAL BIOAVAILABILITY” (CN Bio Innovations Limited, priority 2023, published 2025)

Experiments:
[1] = system: primary human intestinal cells; test: Intestinal barrier strength by transepithelial electrical resistance (TEER), primary intestinal cells in different media; type: cell-based; details: after 8 days in culture, FIG. 3
Source text: It was clear that that serum free intestinal differentiation media compromised the metabolic functionality of primary liver cells, thus would not be appropriate for the co-culture of these two cell types. Therefore, the inventors investigated which components of serum free intestinal differentiation media were important for intestinal barrier function.

primary liver cells = test: CYP3A4 metabolic rate of primary liver cells co-cultured with primary intestinal cells in dual organ plate; type: cell-based, human; details: co-culture with primary intestinal cells; threshold 1 pmol/min/million cell; by day 6 in culture; FIG. 4

Row | Compound | TEER (intestinal barrier strength) [1] | CYP3A4 metabolic rate (primary liver cells)
1 | C[C@]12CCC(=O)C=C1CC[C@@H]1[C@@H]2[C@@H](O)C[C@@]2(C)[C@H]1CC[C@]2(O)C(=O)CO [hydrocortisone, reference compound] | help maintain primary intestinal cell barrier function | –
2 | epidermal growth factor [EGF] | critical for primary intestinal cell barrier function | compromises the metabolic functionality
